Experimental data as given in article PMC6095594, “Pre-clinical evaluation of quinoxaline-derived chalcones in tuberculosis” (PLoS ONE, 2018).
Values after ≈ are worked out from the molar mass of the structure shown. Where two headings read alike, the source gives them in different places.

Experiments:
[1] = tested on: M. tuberculosis pan-susceptible clinical isolate CDCT-28; assay: microbe, parasite or virus in culture; format: cell-based; conditions: Mycobacterium tuberculosis
CYP2C19 = CYP2C19 (Homo sapiens, UniProt P33261); conditions: human liver microsomes, CYP2C19, N9 0.01–100 μmol L^-1
Sequence of CYP2C19 (P33261 whole entry): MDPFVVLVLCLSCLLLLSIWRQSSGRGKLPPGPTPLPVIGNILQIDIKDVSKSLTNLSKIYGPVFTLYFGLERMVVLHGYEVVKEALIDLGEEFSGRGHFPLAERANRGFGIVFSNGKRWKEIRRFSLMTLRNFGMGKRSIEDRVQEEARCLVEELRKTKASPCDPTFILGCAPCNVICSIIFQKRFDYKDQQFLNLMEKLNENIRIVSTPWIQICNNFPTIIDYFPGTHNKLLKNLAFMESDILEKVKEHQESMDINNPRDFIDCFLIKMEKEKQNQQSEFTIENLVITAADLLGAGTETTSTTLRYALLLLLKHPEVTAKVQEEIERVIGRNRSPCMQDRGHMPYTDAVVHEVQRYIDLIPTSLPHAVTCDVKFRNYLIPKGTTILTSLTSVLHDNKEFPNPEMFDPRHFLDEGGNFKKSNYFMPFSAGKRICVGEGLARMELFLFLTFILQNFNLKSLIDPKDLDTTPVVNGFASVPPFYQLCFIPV

[2] = tested on: M. tuberculosis H37Rv strain; assay: microbe, parasite or virus in culture; format: cell-based
CYP2E1 = CYP2E1 (Homo sapiens, UniProt P05181); conditions: human liver microsomes, CYP2E1, N9 0.01–100 μmol L^-1
Sequence of CYP2E1 (P05181 whole entry): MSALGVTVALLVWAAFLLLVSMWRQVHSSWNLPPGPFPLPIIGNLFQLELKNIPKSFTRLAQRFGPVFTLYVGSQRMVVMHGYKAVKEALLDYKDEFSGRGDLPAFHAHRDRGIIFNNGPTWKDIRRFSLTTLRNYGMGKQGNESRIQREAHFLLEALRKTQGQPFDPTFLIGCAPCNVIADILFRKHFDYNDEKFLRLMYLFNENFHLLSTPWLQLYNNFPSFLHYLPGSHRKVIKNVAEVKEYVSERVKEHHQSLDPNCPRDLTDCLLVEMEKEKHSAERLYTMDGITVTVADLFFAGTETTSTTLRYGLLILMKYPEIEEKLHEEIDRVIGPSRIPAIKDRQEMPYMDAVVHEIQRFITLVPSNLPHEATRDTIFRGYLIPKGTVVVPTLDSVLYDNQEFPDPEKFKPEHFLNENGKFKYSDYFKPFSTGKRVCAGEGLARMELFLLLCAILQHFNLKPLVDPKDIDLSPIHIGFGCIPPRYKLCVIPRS

S. typhimurium TA1535 = assay: Salmonella/microsome mutagenicity test
Method: Salmonella typhimurium strains TA98, TA97a, TA100, TA1535, and TA102 were provided by MOLTOX® (Molecular Toxicology Inc. USA). Mutagenicity was assayed according to the pre-incubation procedure following the recommendation described in Mortelmans and Zieger (2000). […] Briefly, 100 μL of test bacterial cultures (1–2 x 10^9 cells/mL) were incubated at 37 °C with different concentrations of N9 (10–400 μg/plate) in the presence or absence of S9 mix, for 20 min, without shaking. […] Plates were incubated in the dark at 37 °C for 48 h before counting the revertant colonies. Assays were repeated twice and the plating for each concentration was conducted in triplicate. Data were evaluated by one-way analysis of variance (ANOVA), followed by Dunnett's post-test, using GraphPad Prism 5.0 (GraphPad, San Diego, CA, USA).

CYP3A4/5 = assay: in vitro; conditions: human, microsomes, pH 7.4

COc1ccc(OC)c(C(=O)/C=C/c2ccc3nccnc3c2)c1 [N9]
MIC [1]: 1.56 µg/mL (≈ 4.87 µM) | percentage of remaining enzyme activity (CYP2C19): approximately 100% | MIC ([2]; H37Rv): 3.13 µg/mL (≈ 9.77 µM) | MIC ([2]; Mycobacterium tuberculosis, H37RV, read-out: MIC): 3.13 to 12.5 µg/mL (≈ 9.77 to 39 µM) | MIC ([2]; Mycobacterium tuberculosis, read-out: MICs, M. tuberculosis H37Rv strain, and clinical isolates (summary)): 1.56 to 3.13 µg/mL (≈ 4.87 to 9.79 µM) | percentage of remaining enzyme activity (CYP2E1): approximately 100% | MI: mutagenic index (S. typhimurium TA1535; TA1535, +S9, 10 μg/plate): 1.16 | Number of revertants/plate (S. typhimurium TA1535; TA1535, +S9, 10 μg/plate): 9.7±1.2 Rev/plate | MI: mutagenic index (S. typhimurium TA1535; TA1535, +S9, 50 μg/plate): 1.24 | Number of revertants/plate (S. typhimurium TA1535; TA1535, +S9, 50 μg/plate): 10.3±2.5 Rev/plate | MI: mutagenic index (S. typhimurium TA1535; TA1535, +S9, 100 μg/plate): 1.00 | Number of revertants/plate (S. typhimurium TA1535; TA1535, +S9, 100 μg/plate): 8.3±4.9 Rev/plate | MI: mutagenic index (S. typhimurium TA1535; TA1535, +S9, 200 μg/plate): 1.04 | Number of revertants/plate (S. typhimurium TA1535; TA1535, +S9, 200 μg/plate): 8.7±1.2 Rev/plate | MI: mutagenic index (S. typhimurium TA1535; TA1535, +S9, 400 μg/plate): 0.68 | Number of revertants/plate (S. typhimurium TA1535; TA1535, +S9, 400 μg/plate): 5.7±1.2 Rev/plate | MI: mutagenic index (S. typhimurium TA1535; TA1535, -S9, 10 μg/plate): 1.03 | Number of revertants/plate (S. typhimurium TA1535; TA1535, -S9, 10 μg/plate): 11.7±0.6 Rev/plate | MI: mutagenic index (S. typhimurium TA1535; TA1535, -S9, 50 μg/plate): 0.82 | Number of revertants/plate (S. typhimurium TA1535; TA1535, -S9, 50 μg/plate): 9.3±0.6 Rev/plate | MI: mutagenic index (S. typhimurium TA1535; TA1535, -S9, 100 μg/plate): 1.03 | Number of revertants/plate (S. typhimurium TA1535; TA1535, -S9, 100 μg/plate): 11.7±5.9 Rev/plate | MI: mutagenic index (S. typhimurium TA1535; TA1535, -S9, 200 μg/plate): 1.18 | Number of revertants/plate (S. typhimurium TA1535; TA1535, -S9, 200 μg/plate): 13.3±4.0 Rev/plate | MI: mutagenic index (S. typhimurium TA1535; TA1535, -S9, 400 μg/plate): 1.24 | Number of revertants/plate (S. typhimurium TA1535; TA1535, -S9, 400 μg/plate): 14.0±3.6 Rev/plate | IC50 (CYP3A4/5): > 100 µM
